A short description of this data set: Stability study of the shampoo solution at room temperature (active ingredient remaining). It counts as physicochemical. On the procedure:
Solution was stirred and stability studies were performed at room temperature

With “N-chloro-4-carboxybenzenesulfonamide disodium salt”, the “N-chloro-4-carboxybenzenesulfonamide disodium salt active ingredient remained” value (in Example 1 shampoo (1% active, pH just below 9), after 49 days) worked out at 84.8%; the “N-chloro-4-carboxybenzenesulfonamide disodium salt active ingredient remained” value (in Example 2 shampoo (1% active, pH 9), after 62 days) is recorded as 100%; the “N-chloro-4-carboxybenzenesulfonamide disodium salt active ingredient remained” value (in Example 3 shampoo (1% active, pH 9), after 62 days) was 88.1%.

The values above are taken from patent publication US20060073995A1, “Animal shampoo” (priority 2004, published 2006).
